Measurements published in ChEMBL document CHEMBL1137072, “Peptide deformylase inhibitors with activity against respiratory tract pathogens” (Bioorg Med Chem Lett, 2004).
pIC50: −log10 of the molar value. Converted amounts (≈) assume the structure as drawn.

Each compound was assayed on Streptococcus pneumoniae (assay: Minimum inhibitory concentration required for primary screening against in-house strain of Streptococcus pneumoniae tested in vitro).
Assay type: functional
`CC(C)(C)[C@H](NC(=O)[C@H](CC1CCCC1)CN(O)C=O)C(=O)c1ccc(N2CCOCC2)c(F)c1` gave an MIC of 0.25 µg/mL (≈ 0.509 µM). In the case of `CC(C)(C)[C@H](NC(=O)[C@H](CC1CCCC1)CN(O)C=O)C(=O)c1ccc(N2CCC(O)CC2)cc1`, the MIC was 0.25 µg/mL (≈ 0.513 µM). `CC(C)(C)[C@H](NC(=O)[C@H](CC1CCCC1)CN(O)C=O)C(=O)c1ccc(N2CCC(O)CC2)c(F)c1` showed an MIC of 0.25 µg/mL (≈ 0.494 µM). Work on `CC(C)(C)[C@H](NC(=O)[C@H](CC1CCCC1)CN(O)C=O)C(=O)c1cc(F)c(F)cc1N1CCC[C@H]1CO` yielded an MIC of 0.25 µg/mL (≈ 0.477 µM). With `CC(C)(C)[C@H](NC(=O)[C@H](CC1CCCC1)CN(O)C=O)C(=O)c1ccc(N2CCC[C@H]2CO)c(F)c1` the MIC was 0.25 µg/mL (≈ 0.494 µM).

These compounds were tested on Haemophilus influenzae (assay: Minimum inhibitory concentration required for primary screening against in-house strain of Haemophilus influenzae tested in vitro; Range- 0.5-4).
Assay type: functional
In the case of `CC(C)(C)[C@H](NC(=O)[C@H](CC1CCCC1)CN(O)C=O)C(=O)c1cc(F)c(F)cc1N1CCOCC1`, the MIC90 was 2 µg/mL (≈ 3.92 µM). Work on `CC(C)(C)[C@H](NC(=O)[C@H](CC1CCCC1)CN(O)C=O)C(=O)c1ccc(N2CCOCC2)c(F)c1` yielded an MIC of less than 4 µg/mL. Work on `CC(C)(C)[C@H](NC(=O)[C@H](CC1CCCC1)CN(O)C=O)C(=O)c1cc(F)c(F)cc1N1CCN(CCN2CCCC2)CC1` yielded an MIC of less than 4 µg/mL.

These compounds were tested on Streptococcus pneumoniae (assay: Minimum inhibitory concentration required for primary screening against in-house strain of Streptococcus pneumoniae tested in vitro; Range- 0.008-1).
Assay type: functional
`CC1(C)S[C@@H]2[C@H](NC(=O)[C@H](N)c3ccc(O)cc3)C(=O)N2[C@H]1C(=O)O.O=C(O)[C@H]1/C(=C/CO)O[C@@H]2CC(=O)N21` gave an MIC90 of 1 µg/mL.

The compounds below were run on Moraxella catarrhalis (assay: Minimum inhibitory concentration required for primary screening against in-house strain of Moraxella catarrhalis tested in vitro; Range = 0.015-0.12).
Assay type: functional
In the case of `CCCC[C@H](CN(O)C=O)C(=O)N[C@H](C(=O)N(C)C)C(C)(C)C`, the MIC90 was 0.12 µg/mL (≈ 0.364 µM).

These compounds were tested on Haemophilus influenzae (assay: Minimum inhibitory concentration required for primary screening against in-house strain of Haemophilus influenzae tested in vitro; Range- 0.12-16).
Assay type: functional
`CC1(C)S[C@@H]2[C@H](NC(=O)[C@H](N)c3ccc(O)cc3)C(=O)N2[C@H]1C(=O)O.O=C(O)[C@H]1/C(=C/CO)O[C@@H]2CC(=O)N21` was tested, and the MIC90 was 1 µg/mL.

These compounds were tested on Moraxella catarrhalis (assay: microbe, parasite or virus in culture).
`O=C(O)c1cn(C2CC2)c2cc(N3CCNCC3)c(F)cc2c1=O` [CIPROFLOXACIN] was tested, and the MIC90 was 0.06 µg/mL (≈ 0.181 µM).

These compounds were tested on Haemophilus influenzae (assay: Minimum inhibitory concentration required for primary screening against in-house strain of Haemophilus influenzae tested in vitro; Range- 0.25-2).
Assay type: functional
In the case of `CC(C)(C)[C@H](NC(=O)[C@H](CC1CCCC1)CN(O)C=O)C(=O)c1cc(F)c(F)cc1N1CCOCC1`, the MIC was less than 2 µg/mL. In the case of `CC(C)(C)[C@H](NC(=O)[C@H](CC1CCCC1)CN(O)C=O)C(=O)c1ccc(N2CCC(O)CC2)cc1`, the MIC was less than 2 µg/mL.

These compounds were tested on Haemophilus influenzae (assay: Minimum inhibitory concentration required for primary screening against in-house strain of Haemophilus influenzae tested in vitro; Range- 0.125-2).
Assay type: functional
`CC(C)(C)[C@H](NC(=O)[C@H](CC1CCCC1)CN(O)C=O)C(=O)c1ccc(N2CCC(O)CC2)c(F)c1` was tested, and the MIC was less than 2 µg/mL. In the case of `CC(C)(C)[C@H](NC(=O)[C@H](CC1CCCC1)CN(O)C=O)C(=O)c1ccc(N2CCC[C@H]2CO)c(F)c1`, the MIC was less than 2 µg/mL.

What follows are compounds tested on Moraxella catarrhalis (assay: Minimum inhibitory concentration required for primary screening against in-house strain of Moraxella catarrhalis tested in vitro; Range- 0.008-0.12).
Assay type: functional
With `CC1(C)S[C@@H]2[C@H](NC(=O)[C@H](N)c3ccc(O)cc3)C(=O)N2[C@H]1C(=O)O.O=C(O)[C@H]1/C(=C/CO)O[C@@H]2CC(=O)N21` the MIC90 was 0.12 µg/mL.

These compounds were tested on Haemophilus influenzae (assay: Minimum inhibitory concentration required for primary screening against in-house strain of Haemophilus influenzae tested in vitro; Range- 0.5-2).
Assay type: functional
In the case of `CC(C)(C)[C@H](NC(=O)[C@H](CC1CCCC1)CN(O)C=O)C(=O)c1cc(F)c(F)cc1N1CCC[C@H]1CO`, the MIC was less than 2 µg/mL.

Each compound was assayed on Moraxella catarrhalis (assay: Minimum inhibitory concentration required for primary screening against in-house strain of Moraxella catarrhalis tested in vitro; Range- 0.015-0.12).
Assay type: functional
`CC(C)(C)[C@H](NC(=O)[C@H](CC1CCCC1)CN(O)C=O)C(=O)c1cc(F)c(F)cc1N1CCOCC1` gave an MIC90 of 0.12 µg/mL (≈ 0.235 µM).

The compounds below were run on Haemophilus influenzae (assay: microbe, parasite or virus in culture).
Description: Minimum inhibitory concentration required for primary screening against in-house strain of Haemophilus influenzae tested in vitro; Range- 0.004-1
`O=C(O)c1cn(C2CC2)c2cc(N3CCNCC3)c(F)cc2c1=O` [CIPROFLOXACIN] was tested, and the MIC90 was 0.015 µg/mL (≈ 0.0453 µM).

What follows are compounds tested on Streptococcus pneumoniae (assay: microbe, parasite or virus in culture).
Description: Minimum inhibitory concentration required for primary screening against in-house strain of Streptococcus pneumoniae tested in vitro; Range- 0.2-128
`O=C(O)c1cn(C2CC2)c2cc(N3CCNCC3)c(F)cc2c1=O` [CIPROFLOXACIN] gave an MIC90 of 8 µg/mL (≈ 24.1 µM).

What follows are compounds tested against T1, Peptide deformylase (Escherichia coli, UniProt Q9JN24) (assay: Inhibitory activity against Escherichia coli peptide deformylase (PDF) Nickel containing enzyme).
T1 sequence (Q9JN24 whole entry): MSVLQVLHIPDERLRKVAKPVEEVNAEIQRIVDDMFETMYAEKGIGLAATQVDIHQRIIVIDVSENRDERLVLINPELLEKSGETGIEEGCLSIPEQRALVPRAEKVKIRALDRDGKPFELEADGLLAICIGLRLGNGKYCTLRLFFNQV
Work on `CC(C)(C)[C@H](NC(=O)[C@H](CC1CCCC1)CN(O)C=O)C(=O)c1cc(F)c(F)cc1N1CCOCC1` yielded a pIC50 of 9.30. In the case of `CC(C)(C)[C@H](NC(=O)[C@H](CC1CCCC1)CN(O)C=O)C(=O)c1ccc(N2CCOCC2)c(F)c1`, the pIC50 was 9.22. For `CC(C)(C)[C@H](NC(=O)[C@H](CC1CCCC1)CN(O)C=O)C(=O)c1ccc(N2CCC(O)CC2)cc1`, the pIC50 was 8.70. In the case of `CC(C)(C)[C@H](NC(=O)[C@H](CC1CCCC1)CN(O)C=O)C(=O)c1ccc(N2CCC(O)CC2)c(F)c1`, the pIC50 was 8.70. `CC(C)(C)[C@H](NC(=O)[C@H](CC1CCCC1)CN(O)C=O)C(=O)c1cc(F)c(F)cc1N1CCN(CCN2CCCC2)CC1` gave a pIC50 of 8.70. `CC(C)(C)[C@H](NC(=O)[C@H](CC1CCCC1)CN(O)C=O)C(=O)c1ccc(N2CCC[C@H]2CO)c(F)c1` was tested, and the pIC50 was 8.70.

Each compound was assayed on Streptococcus pneumoniae (assay: Minimum inhibitory concentration required for primary screening against in-house strain of Streptococcus pneumoniae tested in vitro; Range- 0.06-2).
Assay type: functional
Work on `CC(C)(C)[C@H](NC(=O)[C@H](CC1CCCC1)CN(O)C=O)C(=O)c1cc(F)c(F)cc1N1CCOCC1` yielded an MIC90 of 1 µg/mL (≈ 1.96 µM).

These compounds were tested on Streptococcus pneumoniae (assay: Minimum inhibitory concentration required for primary screening against in-house strain of Streptococcus pneumoniae tested in vitro; Range- 2->8).
Assay type: functional
`CCCC[C@H](CN(O)C=O)C(=O)N[C@H](C(=O)N(C)C)C(C)(C)C` was tested, and the MIC90 was greater than 16 µg/mL.

The compounds below were run on Streptococcus pneumoniae (assay: Minimum inhibitory concentration required for primary screening against in-house strain of Streptococcus pneumoniae tested in vitro; Range- 0.25-0.5).
Assay type: functional
`CC(C)(C)[C@H](NC(=O)[C@H](CC1CCCC1)CN(O)C=O)C(=O)c1cc(F)c(F)cc1N1CCOCC1` was tested, and the MIC was less than 0.5 µg/mL. `CC(C)(C)[C@H](NC(=O)[C@H](CC1CCCC1)CN(O)C=O)C(=O)c1cc(F)c(F)cc1N1CCN(CCN2CCCC2)CC1` was tested, and the MIC was less than 0.5 µg/mL.

The compounds below were run on Haemophilus influenzae (assay: Minimum inhibitory concentration required for primary screening against in-house strain of Haemophilus influenzae tested in vitro; Range- 0.06-8).
Assay type: functional
`CCCC[C@H](CN(O)C=O)C(=O)N[C@H](C(=O)N(C)C)C(C)(C)C` was tested, and the MIC90 was 2 µg/mL (≈ 6.07 µM).

Each compound was assayed on Moraxella catarrhalis (assay: Minimum inhibitory concentration required for primary screening against in-house strain of Moraxella catarrhalis tested in vitro).
Assay type: functional
With `CC(C)(C)[C@H](NC(=O)[C@H](CC1CCCC1)CN(O)C=O)C(=O)c1cc(F)c(F)cc1N1CCOCC1` the MIC was less than 0.125 µg/mL. `CC(C)(C)[C@H](NC(=O)[C@H](CC1CCCC1)CN(O)C=O)C(=O)c1ccc(N2CCOCC2)c(F)c1` was tested, and the MIC was less than 0.125 µg/mL. With `CC(C)(C)[C@H](NC(=O)[C@H](CC1CCCC1)CN(O)C=O)C(=O)c1ccc(N2CCC(O)CC2)cc1` the MIC was less than 0.125 µg/mL. In the case of `CC(C)(C)[C@H](NC(=O)[C@H](CC1CCCC1)CN(O)C=O)C(=O)c1ccc(N2CCC(O)CC2)c(F)c1`, the MIC was less than 0.125 µg/mL. Work on `CC(C)(C)[C@H](NC(=O)[C@H](CC1CCCC1)CN(O)C=O)C(=O)c1cc(F)c(F)cc1N1CCC[C@H]1CO` yielded an MIC of less than 0.125 µg/mL. Compound `CC(C)(C)[C@H](NC(=O)[C@H](CC1CCCC1)CN(O)C=O)C(=O)c1ccc(N2CCC[C@H]2CO)c(F)c1` has an MIC of less than 0.125 µg/mL.

What follows are compounds tested on Moraxella catarrhalis (assay: Minimum inhibitory concentration required for primary screening against in-house strain of Moraxella catarrhalis tested in vitro; Range = 0.125-0.25).
Assay type: functional
With `CC(C)(C)[C@H](NC(=O)[C@H](CC1CCCC1)CN(O)C=O)C(=O)c1cc(F)c(F)cc1N1CCN(CCN2CCCC2)CC1` the MIC was less than 0.25 µg/mL.
